Data on 19 molecules can be found in ChEMBL document CHEMBL2401682, “Evaluation of Jatropha isabelli natural products and their synthetic analogs as potential antimalarial therapeutic agents” (Eur J Med Chem, 2013).

Structures are written as SMILES. Converted amounts (≈) assume the structure as drawn.

The subject of data set [1] is Plasmodium falciparum. Put plainly: Antimalarial activity against chloroquine-sensitive Plasmodium falciparum 3D7 infected in O-positive erythrocytes assessed as parasite growth inhibition after 72 hrs by DNA staining-based assay. Format: functional, organism-based. The following applies: 3D7, 72 h.
Data set [2] has as its system Plasmodium falciparum. Put plainly: Antimalarial activity against chloroquine and pyrimethamine-resistant Plasmodium falciparum K1 infected in O-positive erythrocytes assessed as parasite growth inhibition after 72 hrs by DNA staining-based assay. Format: functional, organism-based. To be noted: K1, 72 h.
Data set [3] can be described thus: Permeability of the compound by PAMPA. Format: ADME. The following applies: read-out: permeability.
The next data set has as its system HEK293. Put plainly: Cytotoxicity against HEK293 cells after 72 hrs by celltiter-glo assay. Format: cell-based. The following applies: Homo sapiens, HEK293, 72 h.
The next data set deals with HepG2. The experiment in a line: Cytotoxicity against human HepG2 cells after 72 hrs by celltiter-glo assay. Format: cell-based. The following applies: HepG2, 72 h. A general note: In ATP-based viability assays light output follows the ATP content of the culture.
For another data set, the system named is Raji. The experiment in a line: Cytotoxicity against human Raji cells after 72 hrs by celltiter-glo assay. Format: cell-based.
A short description of data set [4]: Solubility of the compound. Format: physicochemical.
Another data set concerns BJ. The experiment in a line: Cytotoxicity against human BJ cells after 72 hrs by celltiter-glo assay. Format: cell-based.
Data set [5] can be described thus: Solubility of the compound at pH 3 to 7. Format: physicochemical. To be noted: buffer.
Data set [6] in a line: Half life in human liver microsomes. Format: ADME, Microsome.
Data set [7] is described as follows: Half life in mouse liver microsomes. Format: ADME, Microsome. Background: Liver microsomes are a subcellular fraction often used to study metabolism.
Data set [8] is described as follows: Half life in human plasma. Format: ADME, cell-free.
Data set [9] can be described thus: Half life in mouse plasma. Format: ADME, cell-free.
Data set [10] is described as follows: Plasma protein binding in human. Format: ADME, cell-free. The following applies: read-out: PPB (converted).
Data set [11] is described as follows: Efflux ratio of permeability in human Caco2 cells. Format: ADME, cell-based. The following applies: Caco-2. On the technique in general: Caco-2 cells form a polarised layer with tight junctions and transporters.
A short description of data set [12]: Plasma protein binding in mouse. Format: ADME, cell-free. To be noted: read-out: PPB (converted).

`CC1=C2CC(C)(C)/C(c3ccc(C(F)(F)F)cc3)=C/C(=O)/C(C)=C\C3=C[C@H](C)C[C@]3(O2)C1=O`: the half-maximal effective concentration (EC50) (commonly the concentration giving half of the maximal effect) in the data set with Plasmodium falciparum [1] stood at 6.08 µM; with Plasmodium falciparum [2], 5.88 µM; in the data set with HEK293, 26 µM; in the data set with HepG2, 26 µM; with Raji, 26 µM; in the data set with BJ, 26 µM. Further, the Papp in data set [3] was 106 ×10⁻⁶ cm/s. Moreover, the concentration in solution in data set [4] (solubility) came to 17 µg/mL (≈ 37.2 µM).

`CC1=C2CC(C)(C)/C=C/C(=O)/C(C)=C\C3=C[C@H](C)C[C@]3(O2)C1=O` [JATROPHONE]: the half-maximal effective concentration (EC50) amounted to 15 µM with Plasmodium falciparum [1]; 5.41 µM with Plasmodium falciparum [2]; 6.09 µM in the data set on HEK293; 6.09 µM in the data set with HepG2; 26 µM with Raji; 1.93 µM with BJ. The solubility (as a rule, the concentration that dissolves in the medium under given conditions) in [5] amounted to 20 µg/mL (≈ 64 µM). Also, the half-life – broadly, the time needed for the level to fall by half in the phase considered – in data set [6] is 6 min; in data set [7], 5.4 min; in data set [8], 7.8 min; in data set [9], 12.6 min. In addition, the Papp in data set [3] is 525 ×10⁻⁶ cm/s. Besides, the fraction unbound in data set [10] and in data set [12] was 0.26 throughout. In addition, in data set [11], the efflux ratio (usually a quotient of directional permeabilities that is used to spot active efflux) was found to be 1.5.

Take `CC(=O)O[C@H]1CC[C@]2(C)[C@H]3CC[C@]4(C)C(=CC[C@@]5(C(=O)O)CCC(C)(C)C[C@H]54)[C@]3(C)CC[C@H]2C1(C)C` [ACETYL ALEURITOLIC ACID]: the EC50 was found to be 15 µM with Plasmodium falciparum [1]; 15 µM in the data set on Plasmodium falciparum [2]; 26 µM with HEK293; 26 µM in the data set on HepG2; 26 µM with Raji; 26 µM with BJ.

On to `CC1=C2CC(C)(C)/C=C/[C@@H](O)/C(C)=C\C3=C[C@H](C)C[C@]3(O2)C1=O`, for which the EC50 with Plasmodium falciparum [1] was determined as 0.744 µM; with Plasmodium falciparum [2] it was 15 µM; in the data set on HEK293 it was 26 µM; with HepG2, 26 µM; with Raji, 26 µM; with BJ, 26 µM.

Regarding `C/C1=C/C2=C[C@H](C)C[C@@]23O[C@]2(CC(C)(C)[C@@H](O)[C@@H]2C1=O)[C@@H](C)C3=O`, the EC50 in the data set on Plasmodium falciparum [1] is 15 µM; with Plasmodium falciparum [2] it was 15 µM; in the data set on HEK293, 26 µM; in the data set on HepG2, 26 µM; with Raji it was 26 µM; with BJ it was 10.4 µM.

As to `C[C@@H]1CC[C@H]2CC3C(=O)CC[C@@]31C2(C)C` (stereo not given in full), the EC50 stood at 15 µM in the data set on Plasmodium falciparum [1]; 15 µM with Plasmodium falciparum [2]; 26 µM in the data set on HEK293; 26 µM in the data set with HepG2; 26 µM in the data set with Raji; 26 µM in the data set with BJ.

As for `C/C1=C/C2=C[C@H](C)CC2(Br)C(=O)[C@@]2(C)O[C@@H]([C@@H](Br)C1=O)C(C)(C)CC2=O` (stereo not given in full), the EC50 in the data set with Plasmodium falciparum [1] was found to be 15 µM; with Plasmodium falciparum [2], 15 µM; with HEK293, 26 µM; in the data set with HepG2, 26 µM; in the data set on Raji, 26 µM; in the data set with BJ, 26 µM.

For `C/C1=C/C2=C[C@H](C)C[C@@]23O[C@]2(CC(C)(C)C[C@@H]2[C@@]1(O)C(F)(F)F)[C@@H](C)C3=O`, the EC50 in the data set with Plasmodium falciparum [1] was determined as 15 µM; with Plasmodium falciparum [2], 15 µM; with HEK293, 26 µM; with HepG2, 26 µM; in the data set with Raji, 26 µM; in the data set on BJ, 26 µM.

Consider `COc1ccc(/C2=C\C(=O)/C(C)=C\C3=C[C@H](C)C[C@@]34OC(=C(C)C4=O)CC2(C)C)cc1`, for which the concentration giving a half-maximal response (EC50) with Plasmodium falciparum [1] came to 15 µM; in the data set with Plasmodium falciparum [2] it was 15 µM; in the data set with HEK293, 26 µM; with HepG2, 26 µM; in the data set with Raji it was 26 µM; with BJ, 26 µM.

For `COC(=O)C1=C2C[C@@H]3CC[C@@H](C)[C@]2(CC1)C3(C)C`, the EC50 amounted to 15 µM in the data set on Plasmodium falciparum [1]; 15 µM in the data set on Plasmodium falciparum [2]; 26 µM in the data set with HEK293; 26 µM in the data set on HepG2; 26 µM in the data set on Raji; 26 µM with BJ.

`CC1=C2CC(C)(C)/C=C/C(=O)/C(C)=C\C3=C[C@H](C)C[C@]3(O2)[C@]1(C)O`: the concentration for a half-maximal effect (EC50) amounted to 0.624 µM with Plasmodium falciparum [1]; 15 µM with Plasmodium falciparum [2]; 26 µM in the data set with HEK293; 26 µM in the data set on HepG2; 26 µM in the data set on Raji; 26 µM with BJ.

With `C/C1=C/C2=C[C@H](C)C[C@@]23O[C@]2(CC(C)(C)[C@@H](Nc4ccccc4)[C@@H]2C1=O)[C@@H](C)C3=O`, the EC50 is 8.88 µM in the data set on Plasmodium falciparum [1]; 5.58 µM in the data set on Plasmodium falciparum [2]; 26 µM in the data set with HEK293; 26 µM in the data set on HepG2; 26 µM in the data set on Raji; 12.6 µM in the data set on BJ.

Regarding `CC1=C2CC(C)(C)/C=C/C(=O)/C(C)=C\C3=C[C@H](C)C[C@]3(O2)[C@@]1(O)C(F)(F)F`, the EC50 in the data set on Plasmodium falciparum [1] turned out to be 15 µM; in the data set with Plasmodium falciparum [2], 15 µM; in the data set with HEK293 it was 26 µM; with HepG2, 26 µM; in the data set with Raji it was 26 µM; in the data set with BJ, 26 µM.

For the molecule `C[C@@H]1CC[C@H]2CC3=C(C=O)CC[C@@]31C2(C)C`, the EC50 is 15 µM with Plasmodium falciparum [1]; 15 µM in the data set with Plasmodium falciparum [2]; 26 µM in the data set on HEK293; 26 µM in the data set on HepG2; 26 µM in the data set on Raji; 26 µM in the data set with BJ.

Regarding `C/C1=C/C2=C[C@H](C)C[C@@]23O[C@]2(CC(C)(C)C[C@@H]2[C@@H]1OC(=S)Sc1ccccc1)[C@@H](C)C3=O`, the EC50 in the data set with Plasmodium falciparum [1] worked out at 8.88 µM; in the data set on Plasmodium falciparum [2], 5.69 µM; with HEK293 it was 17.8 µM; with HepG2, 26 µM; in the data set with Raji, 26 µM; with BJ it was 26 µM.

`CC1=C2CC(C)(C)/C(c3ccccc3)=C/C(=O)/C(C)=C\C3=C[C@H](C)C[C@]3(O2)C1=O`: the half-maximal effective concentration (EC50) in the data set on Plasmodium falciparum [1] turned out to be 15 µM; with Plasmodium falciparum [2], 15 µM; with HEK293 it was 26 µM; in the data set on HepG2, 26 µM; in the data set on Raji, 26 µM; with BJ, 26 µM.

As for `C=C1CC[C@H]2[C@@H](c3c(C)c(OC(C)=O)c4c(c31)C(=O)C(C)C4)C2(C)C` (stereo not given in full), the EC50 worked out at 15 µM in the data set on Plasmodium falciparum [1]; 6.31 µM in the data set with Plasmodium falciparum [2]; 26 µM in the data set with HEK293; 26 µM in the data set on HepG2; 26 µM with Raji; 26 µM in the data set on BJ.

As for `C/C1=C/C2=C[C@H](C)C[C@@]23O[C@]2(CC(C)(C)[C@@H](Br)[C@@H]2C1=O)[C@](C)(Br)C3=O`, the EC50 with Plasmodium falciparum [1] worked out at 15 µM; in the data set with Plasmodium falciparum [2] it was 15 µM; in the data set with HEK293, 26 µM; in the data set with HepG2, 26 µM; in the data set on Raji, 4.38 µM; with BJ, 26 µM.

As to `CC(=O)O[C@H]1/C=C/C(C)(C)CC2=C(C)C(=O)[C@]3(C[C@@H](C)C=C3/C=C\1C)O2`, the EC50 was 3.2 µM with Plasmodium falciparum [1]; 15 µM in the data set on Plasmodium falciparum [2]; 26 µM in the data set with HEK293; 26 µM with HepG2; 26 µM in the data set with Raji; 26 µM with BJ.
